Where two headings read alike, the source gives them in different places.
Assays:
[1] = tested on: Leishmania tarentolae promastigotes (LtP); experiment: Resazurin viability assay for LtP; type: cell-based; settings: for IC50: Leishmania tarentolae, read-out: LtP IC50; for Selectivity IC50,J774/IC50,LtP: ratio of IC50 in J774 macrophages to IC50 in LtP; for IC50,non-EP/IC50,EP: ratio of IC50 of non-EP in LtP versus IC50 of respective EP
Method: (§1) The influence of AcEP and their analogs (Ac) on the viability of cells was tested in Leishmania tarentolae promastigotes (LtP) and J774 macrophages (Table 2). Based on the changes of viability of the respective cell lines at different compound concentrations, IC50 values were calculated. In Table 2, the IC50 values in both cell lines were compared for the individual compounds. From the ratio of IC50 values in J774 macrophages to IC50 values in LtP, an in vitro selectivity was calculated.
LtP (strain P10 from Jena Bioscience, Jena, Germany) were cultivated according to manufacturer instructions up to passage 50 in brain heart infusion medium (37 g/L, pH 7.4) and supplemented with 5 mg/L hemin and 25,000 IU/L penicillin and 25 mg/L streptomycin in 50 mL TubeSpin bioreactors (TPP, Trasadingen. Switzerland). LtP were grown at 27 °C in an incubator (Ehret, Emmendingen, Germany) and agitated at a frequency of 0.05 s^−1. […] For experiments, LtP were used one day after passage. The cell number was calculated by measuring the optical density (OD) of the culture at 600 nm with a U-1100 photometer (Hitachi Ltd., Tokyo, Japan) and applying the formula × 10^6 cells/mL = OD600nm × 0.969 × 124 × dilution factor [53].
Assay medium of YEM (20.7 g/L yeast extract powder, 1.2 g/L K2HPO4, 0.2 g/L KH2PO4, 2.9 g/L glucose, pH 7.4) and PBS (1:1, v/v), 25,000 U/L penicillin, 25 mg/L streptomycin, and 7.7 µM hemin was prepared. Aliquots of 200 µL of this medium and 2 × 10^6 LtP/mL (where required) were distributed in non-treated cell culture 96-well plates. Compounds (dissolved in DMSO) were added with starting concentrations of 25 µM (Pen) or 200 µM (AcEP/Ac), and then, serial dilutions were carried out resulting in a set of concentrations (25, 5, 1, 0.2, 0.04, and 0.008 µM) or (200, 40, 8, 1.6, 0.32, and 0.064 µM). For each compound concentration, at least triplicates on each plate were performed. After incubation of the plates at 27 °C for 48 h, 50 µL of resazurin solution (final concentration in wells 20 µM) was added to each well and after 4 h of incubation, the fluorescence was measured at 560 nm excitation and 590 nm emission using a plate reader (Perkin Elmer EnSpire, Rodgau, Germany) (adapted from). Combination assays for viability in the presence of PIH and NAC were performed the same way. […] All tests were repeated at least on four different weeks of cultivation.
(§2) Calculations were carried out using Microsoft Excel 2016 (Microsoft). The graphs were created using Origin 6.1 (OriginLab Corporation, Northampton, MA, USA). For all groups of experimental data, mean and standard deviation (SD) were calculated. Statistically significant differences between groups of sample data were identified by unpaired two-tailed Student’s t-test. Differences on the level of p < 0.05 were considered significant. The number of replicates is indicated at the respective figures/tables. The half-maximal inhibitory concentrations (IC50) were determined from non-linear concentration-response curves using a four-parameter logistic model and expressed as the mean ± SD.

J774 macrophages = experiment: Resazurin viability assay for J774 macrophages; type: cell-based, murine; settings: read-out: J774 IC50
Method: as §1
The murine macrophage cell line J774A.1 (ATCC, TIB-67™, Wesel, Germany) was cultivated up to passage 30 in DMEM (high glucose, 3.7 g/L NaHCO3, pH 7.4) with 25,000 IU/L penicillin, 25 mg/L streptomycin, and 10% FCS (heat-inactivated) in 50 mL TubeSpin bioreactors. J774 cells were incubated at 37 °C and 5% CO2 on a roller culture apparatus (5 rpm) in a Heraeus Cytoperm 8080 incubator (Thermo Electron Corp., Vienna, Austria). To determine the cell count, the cell suspension was re-suspended and diluted 1:2 with phosphate-buffered saline (PBS): 137 mM NaCl, 1.4 mM KH2PO4, 4.3 mM Na2HPO4, and 2.7 mM KCl, pH 7.4. After fixation of the cells by mixing the cell suspension 1:1 with a formaldehyde solution (2%, v/v), aliquots of the resulting suspension were transferred into a standard Neubauer chamber (VWR, Austria) and counted manually using a light microscope (Motic BA310, Vienna, Austria) at a magnification of 40 times. J774 cells were passaged twice a week in a ratio of 1:10.
DMEM containing 25,000 U/L penicillin, 25 mg/L streptomycin, 10% FCS, and 1 × 10^5 J774/mL was prepared. This mixture (200 µL) was distributed in cell culture-treated 96-well plates, except the control wells which contained only DMEM. The cells were incubated for 24 h at 37 °C and 5% CO2 to allow attachment. Afterwards the medium and non-adherent cells were removed by washing with PBS, and then, 200 µL DMEM was added to attached cells. Compounds dissolved in DMSO were added in starting concentrations of 25 µM (Pen) or 200 µM (AcEP/Ac), and then, serial dilutions were carried out resulting in the same concentration steps as listed for LtP. For each compound concentration triplicates on each plate were performed. […], 50 µL of resazurin solution (final concentration 20 µM) was added, and after 4 h of incubation, the fluorescence was measured at 560 nm excitation and 590 nm emission using a plate reader (Perkin Elmer EnSpire, Rodgau, Germany). All tests were repeated at least on four different weeks of cultivation.
as §2

[2] = Formation of the xylenol orange/Fe3+ complex by EP; settings: AcEP and 250 µM FeSO4 in methanol/H2O (9:1); for XO/Fe^3+ Formation Rate: mean ± SD of 3 experiments
Source text: In subsequent experiments, we explored the activation of EP and possible cellular consequences of these compounds in Leishmania. In a chemical system, we tested how fast EP react with iron (II) and, therefore, lead to the activation of these compounds. Resulting iron (III) was detected as complex with xylenol orange (XO, Figure 3). The reaction rate of the EP stretched across two magnitudes of orders (Table 3). On the first view, there is no direct link between the activation rates and the efficiency of the compounds against Leishmania.
XO (125 µM) and butylated hydroxytoluene (4 mM) were dissolved in MeOH/H2O (9:1). FeSO4 (25 mM) in 2.5 M H2SO4 was prepared immediately before use (final concentration of 250 µM FeSO4 in the color reagent). An aliquot of 100 µL EP solution (final concentration of 100 µM) was transferred into a disposable cuvette (BRAND, Wertheim, Germany), and 1 mL of the color reagent was added. The EP that reacted slower were incubated for 0, 30, 60, and 90 min at 25 °C. The EP that reacted faster were measured every 5 s over 5 min. At these time points, the OD difference of the sample at 560 nm and 650 nm was determined using a MS1501 UV–VIS diode array spectrophotometer (Shimadzu, Kyoto, Japan). As reference, a mixture of MeOH/H2O (9:1) was used. The slope of the reaction rate was calculated using an extinction coefficient of 1.5 × 10^4 M^−1 cm^−1.

LtP = experiment: Superoxide radical formation in LtP by the EPR/CMH method; type: cell-based, Leishmania tarentolae; settings: antimycin A 20 µM, 20 min at 25 °C
Source text: Since mitochondrial inhibition can be triggered by secondary damage in the respective cells, for example, by superoxide radicals, we studied the formation of superoxide radicals in LtP by the EPR/hydroxyl-3-methoxycarbonyl-2,2,5,5-tetramethylpyrrolidine hydrochloride (CMH) method (Figure 10). […] In the presence of antimycin A (AA, an inhibitor of mitochondrial complex III), the superoxide radical formation in LtP is increased by more than 150% (Figure 11).
An aliquot of the LtP cell culture equivalent to 5 × 10^8 LtP was transferred into a 1.5 mL Eppendorf tube and was centrifuged (Hettich Universal 16, 20 °C, 2000× g, 10 min). After removal of the supernatant, the cell pellet was re-suspended in 1 mL PBS and centrifuged again and the supernatant discarded. The cell pellet was re-suspended in 1 mL of PBS with 15 mM glucose (PBS-gluc), giving a final cell density of 5 × 10^8 LtP/mL. AcEP/Ac compounds were added (100 µM final concentration) to aliquots of 50 µL of this cell suspension in 1.5 mL Eppendorf tubes and incubated for 20 min at 25 °C. Then, DFO (100 μM final concentration), DTPA (25 μM final concentration), and detection agent CMH (400 µM final concentration) were added to the aliquots before measurement. Samples containing only buffer (PBS-gluc) or only LtP (in PBS-gluc) were used as negative controls, while samples containing 20 μM AA were used as positive control. An aliquot of 17 µL suspension was aspirated into a PTFE tube (ø 0.7 mm). The tube was folded into a quartz tube (ø 4 mm outer diameter) and then transferred to the MD5 resonator of the EPR spectrometer. The measurement was started using following parameters: microwave frequency 9.682 GHz; microwave power 20 mW, modulation frequency 100 kHz; modulation amplitude 1 G; time constant 0.82 s; center field 3448 G; sweep width 100 G; scan time 84 s; attenuation 70 dB; separate scans 5. Based on a calibration curve with carboxy proxyl (CP^●) changes of the peak-to-peak intensity of CM^● spectra were converted to CMH oxidation rates (superoxide radical generation).

[3] = resazurin viability, endpoint 48 h, 2 × 10^6 LtP/mL, mean ± SD of 4–8 experiments
[4] = Mus musculus, J774, 48 h, resazurin viability, endpoint 48 h, 10^5 J774 cells/mL, mean ± SD of 4–8 experiments

Row | Selectivity IC50,J774/IC50,LtP [1] | IC50 [1, 3] [µM] | Structure (SMILES) | IC50 (J774 macrophages; [4]) [µM] | Log10 (Formation Rate) [2] | XO/Fe^3+ Formation Rate [2] | further results
1 | 2.0 | 34.5 ± 12.8 | c1ccc(-c2c3ccccc3c(-c3ccccn3)c3ccccc23)nc1 [oPyAc] | 70 ± 10.5 | – | – | –
2 | 4.7 | 32.3 ± 23.4 | CC(=O)OCC1OC(OC23OOC(c4ccccc42)c2ccccc23)C(OC(C)=O)C(OC(C)=O)C1OC(C)=O (stereo not drawn) [MonoGluAcEP] | 153 ± 82.1 | 4.10 | 12,697 ± 1500 nmol/min | IC50,non-EP/IC50,EP [1]: 4.89
3 | >2.7 | 73.3 ± 25.2 | COc1ccccc1-c1c2ccccc2c(-c2ccccc2OC)c2ccccc12 [oOMeAc] | > 200 | – | – | –
4 | – | > 200 | c1cncc(C23OOC(c4cccnc4)(c4ccccc42)c2ccccc23)c1 [mPyAcEP] | > 200 | 2.85 | 708 ± 37 nmol/min | IC50,non-EP/IC50,EP [1]: <0.26
5 | – | 0.52 ± 0.16 | N=C(N)c1ccc(OCCCCCOc2ccc(C(=N)N)cc2)cc1 [Pen, pentamidine, reference compound] | ~12 | – | – | LtP IC50 [1, 3]: submicromolar; IC50 (J774 macrophages; resazurin viability, endpoint 48 h, 10^5 J774 cells/mL, mean ± SD of 4–8 experiments): 12.3 ± 3.96 µM
6 | 1.2 | 52.5 ± 3.3 | c1cncc(-c2c3ccccc3c(-c3cccnc3)c3ccccc23)c1 [mPyAc] | 63.7 ± 7.6 | – | – | –
7 | 0.6 | 158 ± 45.1 | CC(=O)OCC1OC(Oc2c3ccccc3cc3ccccc23)C(OC(C)=O)C(OC(C)=O)C1OC(C)=O (stereo not drawn) [MonoGluAc] | 101 ± 7.8 | – | – | –

Further lines, the molecule ahead of its results:

Row | Structure (SMILES) | Selectivity IC50,J774/IC50,LtP [1] | IC50 [1, 3] [µM] | IC50 (J774 macrophages; [4]) [µM] | Log10 (Formation Rate) [2] | XO/Fe^3+ Formation Rate [2] | further results
8 | CC(C)(C)c1ccc2c(-c3ccccn3)c3ccccc3c(-c3ccccn3)c2c1 [pPyBuAc] | 57 | – | – | – | – | IC50 ([1]; 48 h): 1.86 ± 1.1 µM; IC50 (J774 macrophages; Mus musculus, J774, 48 h): 107 ± 46 µM
9 | c1ccc(-c2c3ccccc3c(-c3ccccc3)c3ccccc23)cc1 [DPAc] | 0.7 | 197 ± 92 | 136 ± 35 | – | – | Activity against LtP, in words ([1]; viability assay): rather inactive
10 | CC(=O)OCC1OC(Oc2c3ccccc3c(OC3OC(COC(C)=O)C(OC(C)=O)C(OC(C)=O)C3OC(C)=O)c3ccccc23)C(OC(C)=O)C(OC(C)=O)C1OC(C)=O (stereo not drawn) [BisGluAc] | – | > 200 | > 200 | – | – | –
11 | c1ccc2c(c1)C1OOC2c2ccccc21 [AcEP] | 0.06 | 19.7 ± 14.1 | 1.21 ± 0.32 | 3.90 | 8110 ± 4197 nmol/min | IC50,non-EP/IC50,EP [1]: >10.1
12 | CC(=O)OCC1OC(OC23OOC(OC4OC(COC(C)=O)C(OC(C)=O)C(OC(C)=O)C4OC(C)=O)(c4ccccc42)c2ccccc23)C(OC(C)=O)C(OC(C)=O)C1OC(C)=O (stereo not drawn) [BisGluAcEP] | – | > 200 | > 200 | 3.83 | 6800 ± 326 nmol/min | –
13 | CCCCCC[C@H]1C(=O)O[C@H](C)[C@H](NC(=O)c2cccc(NC=O)c2O)C(=O)O[C@@H](C)[C@@H]1OC(=O)CC(C)C [antimycin A, reference compound] | – | – | – | – | – | Increase of superoxide radical formation in LtP (LtP): more than 150%
14 | CC(=O)OCC1OC(C23C=C(C(C)(C)C)C(C4OC(COC(C)=O)C(OC(C)=O)C(OC(C)=O)C4OC(C)=O)(OO2)c2ccccc23)C(OC(C)=O)C(OC(C)=O)C1OC(C)=O (stereo not drawn) [MB359EP] | – | > 200 | > 200 | 4.26 | 18,533 ± 1147 nmol/min | –

From publication PMC9612231, “Antileishmanial Anthracene Endoperoxides: Efficacy In Vitro, Mechanisms and Structure-Activity Relationships” (Molecules, 2022)
